Data reported in patent publication US5804603A, “Synthesized β-adrenergic blockers derivatives of guaiacol” (National Science Council, priority 1995, dated 1998).
Like-named read-outs stand apart in the source and are kept apart here.

Tests used:
[1] = tested on: β1 and β2 receptors; details: cited from earlier work
[2] = target: β-receptor (Cavia porcellus, UniProt H0W3H1); assay: Receptor binding assay, [3H]-dihydroalprenolol, heart ventricle membranes
Experimental: Method of receptor binding assay. After punching the heads of guinea pigs, the blood was drained and the heart ventricle immediately removed. The ventricles were placed in 10 vols. of ice-cold buffer (250 mM sucrose, 1 mM Magnesium Chloride, 50 mM Tris-HCl, pH 7.5) and all subsequent procedures were carried out at 4° C. The ventricles were homogenized using a homogenizer 3-4 times. The period of each homogenization took 15 seconds. […] The supernatant was further centrifuged at 10,000 g and the final pellet was resuspended in a small volume of 75 mM Tris buffer containing 25 mM Magnesium Chloride. The membrane protein content was determined by a protein assay dye. The receptor binding assay was initiated by incubating 100 μl of, a membrane protein solution with 50 μl of [^3 H]-dihydroalprenolol(^3 H-DHA) and the competing drugs. Additional buffer was added to increase the reaction volume up to 250 μl. The binding reaction was activated at 25° C. water by constantly shaking for 60 minutes. The binding reaction was stopped by diluting it with 1 ml of ice-cold assay buffer. The solution was then filtered on a Whatman GF/C glass fiber filter paper under vacuum suction. The filters were washed 3 times with ice-cold assay buffer and dried at 60±C. in an oven for 2 hrs. Then 4 ml of scintillation fluid was added and the radioactivity was counted on β-counter.

[3] = tested on: acetic acid-induced writhing syndrome; assay: Acetic acid-induced writhing (antinociceptive test); assay type: in vivo, male mice (ddk strain); details: for Protection / Writhes No. (Ave. ± S.E.): 1.25 mg/kg i.p., N = 8; for ED50: Mus musculus, ip, read-out: ED50 (95% C.I.); for Potency ratio: relative to DZ = 1.00
Experimental: Following the method described by Koster antinociceptive tests were carried out in male mice after intraperitoneal administration of test solution. […] The test solution was administered by intraperitoneal injection of a single dose 0.2 ml (vehicle administered as control). Twenty minutes after injection, 0.2 ml of 0.7% acetic acid was injected intraperitoneally to induce writhing.

[4] = tested on: platelet aggregation induced by collagen; assay: Collagen-induced platelet aggregation in platelet rich plasma; assay type: cell-based; details: 10 μg/ml collagen, PRP; for IC100: Platelet, FIG. 18, read-out: concentration completely inhibiting platelet aggregation
Experimental: A monophasic aggregation curve was observed when 10 μg/ml of collagen was added to platelet rich plasma (PRP).

[5] = in vivo; details: mouse, mice, read-out: LD50 (95% C.L.)
[6] = tested on: isolated rat right atrium; assay: Isolated rat right atrium pretreated with reserpine; assay type: cell-based
[7] = target: T1, Isolated Guinea Pig Atria (Cavia porcellus, UniProt H0W3H1); assay: pA2 on isolated guinea pig atria; assay type: cell-based; details: for pA2, positive chronotropic / pA2, positive inotropic / Kb: isolated guinea pig atria; for Potency ratio (PR), positive chronotropic / Potency ratio (PR), positive inotropic: with respect to propranolol
T1 construct: Isolated Guinea Pig Atria; from tissue; host or cells: guinea pig atria (isolated organ)
T1 sequence (H0W3H1 1-470): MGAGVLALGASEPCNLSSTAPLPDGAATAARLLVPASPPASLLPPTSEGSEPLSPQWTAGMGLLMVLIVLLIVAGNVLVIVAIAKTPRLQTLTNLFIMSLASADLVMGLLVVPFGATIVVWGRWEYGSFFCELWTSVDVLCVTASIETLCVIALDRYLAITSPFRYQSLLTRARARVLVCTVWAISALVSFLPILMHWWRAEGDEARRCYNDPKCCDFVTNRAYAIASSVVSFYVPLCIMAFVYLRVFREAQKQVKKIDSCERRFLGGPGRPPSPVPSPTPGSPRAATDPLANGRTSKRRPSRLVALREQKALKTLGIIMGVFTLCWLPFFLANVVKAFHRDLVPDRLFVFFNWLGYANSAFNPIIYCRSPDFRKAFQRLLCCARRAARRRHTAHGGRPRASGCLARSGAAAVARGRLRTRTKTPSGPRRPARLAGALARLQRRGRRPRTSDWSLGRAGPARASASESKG
Excerpt: The determination of the pA2 is made from experiments in which a fixed concentration of the antagonist is used along with graded concentrations of an agonist acting on the same receptor. The presence of the antagonist shifts the agonist dose-response curve to the right.

[8] = tested on: heart rate and blood pressure; assay: Heart rate and blood pressure changes of rats induced by guaiacoxypropanolamines; assay type: in vivo
[9] = target: T2, β2 adrenergic receptor (Rattus norvegicus, UniProt P10608); assay: Antagonism of isoproterenolol on isolated rat uterus horns; assay type: cell-based; details: 10^-8 -10^-6 M isoproterenolol
T2 construct: from tissue; host or cells: rat uterus horns (isolated organ, stilbestrol and reserpine pretreated)
T2 sequence (P10608 whole entry): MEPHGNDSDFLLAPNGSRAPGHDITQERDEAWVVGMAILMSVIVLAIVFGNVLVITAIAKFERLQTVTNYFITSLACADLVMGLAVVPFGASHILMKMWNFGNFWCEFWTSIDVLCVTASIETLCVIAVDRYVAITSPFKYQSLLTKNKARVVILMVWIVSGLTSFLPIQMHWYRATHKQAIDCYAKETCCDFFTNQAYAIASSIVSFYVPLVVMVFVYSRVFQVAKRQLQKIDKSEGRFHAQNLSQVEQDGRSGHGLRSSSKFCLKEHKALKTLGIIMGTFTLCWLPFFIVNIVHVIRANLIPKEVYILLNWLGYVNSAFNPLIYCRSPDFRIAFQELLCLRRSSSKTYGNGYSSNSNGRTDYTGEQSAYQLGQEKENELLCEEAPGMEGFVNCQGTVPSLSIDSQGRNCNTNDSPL
Experimental: Female rats were intraperitonealy injected with stilbestrol (1 mg/kg) to elevate the sensitivity of β2 adrenergic receptor in uterus horns. The rats were subsequently administered reserpine to deplete the catecholamine in uterus. The isolated uterus horns were treated with phenoxybenzamine to block the neuronal uptake and the interaction between neuron cells and the adrenergic receptor.

[10] = tested on: heart rate and blood pressure; assay: Heart rate and blood pressure of anesthetized rats (i.v.); assay type: in vivo
Excerpt: […]. The effect of DZN on heart rate and blood pressure were monitored.
[…]. Exp. Ther., vol. 96, 99-113). The ID50 value is the response of a β drug which produces a response in 50% of […].

[11] = tested on: platelets; details: cited from earlier work
[12] = mice, Litchfield and Wilcoxon method
[13] = 5 min after dosing, 1.0 mg/kg iv, means ± SE (n = 8)
[14] = 10 min after dosing, 1.0 mg/kg iv, means ± SE (n = 8)
[15] = 15 min after dosing, 1.0 mg/kg iv, means ± SE (n = 8)
[16] = 30 min after dosing, 1.0 mg/kg iv, means ± SE (n = 8)
[17] = 60 min after dosing, 1.0 mg/kg iv, means ± SE (n = 8)
[18] = read-out: pA2, positive chronotropic (converted)
[19] = read-out: pA2, positive inotropic (converted)

Sequence of β-receptor (H0W3H1 1-470): as the sequence (H0W3H1 1-470) above

Compound | inhibition of collagen-induced platelet aggregation [4] | Potency ratio (PR), positive chronotropic [7] | Potency ratio (PR), positive inotropic [7] | change in BP [8, 13] [mmHg] | change in HR [8, 13] [beats/min] | change in BP [8, 14] [mmHg] | change in HR [8, 14] [beats/min] | change in BP [8, 15] [mmHg] | change in HR [8, 15] [beats/min] | change in BP [8, 16] [mmHg] | change in HR [8, 16] [beats/min] | change in BP [8, 17] [mmHg] | change in HR [8, 17] [beats/min] | also measured
CC(C)NCC(O)COc1ccc(CC(N)=O)cc1 (racemic) [Atenolol, reference compound] |  |  |  |  |  |  |  |  |  |  |  |  |  | cardioselectivity [1]: possess cardioselectivity
COc1cc(CCC(C)=O)ccc1OCC(O)CNC(C)C (racemic) [ZPN] |  |  |  |  |  |  |  |  |  |  |  |  |  | EC50 [2]: 11 µM
CCCC(=O)Nc1ccc(OCC(O)CNC(C)C)c(C(C)=O)c1 (stereo not shown) [Acebutolol] |  |  |  |  |  |  |  |  |  |  |  |  |  | cardioselectivity [1]: possess cardioselectivity
COc1cc(C=CC(C)=O)ccc1O [DZ, 4-(4'-hydroxy-3'-methoxyphenyl)-3-buten-2-one] | dose-dependent inhibition of platelet aggregation |  |  |  |  |  |  |  |  |  |  |  |  | Protection [3]: 63.06%; Writhes No. (Ave. ± S.E.) [3]: 29.60 ± 3.75; ED50 [3, 12]: 0.38 mg/kg; IC100 [4]: 250 µM; LD50 ([5]; ip): > 1000 mg/kg; LD50 ([5]; po): > 1000 mg/kg; effect on heart rate ([6]; 10^-9 -10^-5 M): did not affect the heart rate within 10^-9 -10^-5 M
COc1cc(C=CC(C)=O)ccc1OCC1CO1 (stereo not shown) [DZE, 4-[4'-(2,3-Epoxypropoxy)-3'-methoxyphenyl]-3-buten-2-one] | dose-dependent inhibition of platelet aggregation |  |  |  |  |  |  |  |  |  |  |  |  | Protection [3]: 65.69%; Writhes No. (Ave. ± S.E.) [3]: 27.50 ± 3.32; ED50 [3, 12]: 0.23 mg/kg; Potency ratio [3]: 1.70; IC100 [4]: 100 µM
COCCc1ccc(OCC(O)CNC(C)C)cc1 (stereo not shown) [Metoprolol] |  |  |  |  |  |  |  |  |  |  |  |  |  | cardioselectivity [1]: possess cardioselectivity
CCCCCCCCC(=O)NCc1ccc(OCC(O)CNCC)c(OC)c1 (stereo not shown) [NHC2 H5, N-[4-o-(2-hydroxy-3-(ethylamino)propoxy)-3-methoxybenzyl]-nonamide] |  | 0.07 | 0.07 | 7.44 ± 3.16 | -38.33 ± 5.94 | 2.56 ± 2.56 | -32.22 ± 5.36 | 1.11 ± 1.78 | -28.00 ± 7.02 | -2.44 ± 3.05 | -21.11 ± 8.75 | 1.88 ± 1.62 | 2.56 ± 11.66 | pA2, positive chronotropic [7]: 6.93 ± 0.09; pA2, positive inotropic [7]: 7.27 ± 0.09
C=CCNCC(O)COc1ccc(CNC(=O)CCCCCCCC)cc1OC (stereo not shown) [NHC3 H5, N-[4-0-(2-hydroxy-3-(allylamino)propoxy)-3-methoxybenzyl]-nonamide] |  | 0.08 | 0.15 | -1.56 ± 2.03 | -36.78 ± 11.25 | -2.67 ± 1.96 | -28.22 ± 9.00 | -1.89 ± 2.04 | -19.89 ± 9.26 | -1.11 ± 2.62 | -5.00 ± 8.72 | 4.78 ± 4.96 | -7.56 ± 4.14 | Kb [7, 18]: 0.0933 µM; Kb [7, 19]: 0.0251 µM
CCCCCCCCC(=O)NCc1ccc(OCC(O)CNC)c(OC)c1 (stereo not shown) [NHCH3, N-[4-o-(2-hydroxy-3-(methylamino)propoxy)-3-methoxybenzyl]-nonamide] |  | 0.03 | 0.05 | -1.11 ± 2.31 | -34.56 ± 6.79 | -0.22 ± 2.10 | -17.33 ± 5.31 | -0.56 ± 1.65 | -12.22 ± 4.33 | 1.89 ± 2.14 | 14.56 ± 7.73 | 0.78 ± 1.37 | 4.78 ± 4.37 | Kb [7, 18]: 0.295 µM; Kb [7, 19]: 0.0741 µM
CC(C)NCC(O)c1ccc(O)c(O)c1 (stereo not shown) [isoproterenolol, reference compound] |  |  |  |  |  |  |  |  |  |  |  |  |  | effect on isolated uterus horn smooth muscle [9]: dose-related decrease in relaxation force; effect on heart rate and contraction force ([6]; FIG. 16): increases the heart rate and contraction force; concentration of isoproterenolol giving maximum effect ([6]; FIG. 17): 3 µM; effect on blood pressure ([10]; isoproterenolol 0.5 mg/kg): decreased blood pressure; effect on heart rate ([10]; isoproterenolol 0.5 mg/kg): increased the heart rate
CC(C)NCC(O)COc1cccc2ccccc12 (stereo not shown) [propranolol, reference compound] | dose-dependent inhibition of platelet aggregation |  |  |  | -57.28 ± 5.94 | -6.33 ± 2.16 | -63.85 ± 7.18 | -6.50 ± 3.26 | -65.28 ± 8.43 | -4.67 ± 2.66 | -62.57 ± 9.06 | 2.17 ± 3.29 | -52.14 ± 10.93 | change in BP ([8]; iv, 1 mg/kg, 5 min): -2.83 ± 1.81 mmHg; adherence of platelets on collagen [11]: inhibit platelet release and the adherence of platelets on collagen; platelet release [11]: inhibit platelet release; shape change of platelets [11]: does not inhibit the shape change of platelets; effect on isoproterenolol-induced heart rate and blood pressure changes ([10]; FIGS. 6(A), 6(B)): antagonized the effects of isoproterenolol; ED50 ([10]; Rattus norvegicus, iv, anesthetized rats, Litchfield method, read-out: ID50 : heart rate response (95% C.I.)): 0.14 mg/kg; ID50 : heart rate response (95% C.I.) ([10]; i.v., anesthetized rats, Litchfield method): 0.14 (0.96-0.02) mg/kg; time of slightly reduced blood pressure after injection ([10]; i.v., statistical significance not found): 5 to 10 min
COc1cc(CCC(C)=O)ccc1O [zingerone, 4-(4'-hydroxy-3'-methoxyphenyl)-3-butan-2-one, reference compound] | dose-dependent inhibition of platelet aggregation |  |  |  |  |  |  |  |  |  |  |  |  | antinociceptive potency relative to DZ [3]: 3 times; Protection [3]: 71.10%; Writhes No. (Ave. ± S.E.) [3]: 20.75 ± 3.40; ED50 [3]: 0.25 mg/kg; Potency ratio [3]: 1.50
N-[4-0-(2-hydroxy-3-(3-aminopentylamino)propoxy)-3-methoxybenzyl-]-nonamide [NHC5 H11] |  | 0.14 | 0.07 | -2.78 ± 2.33 | -28.11 ± 9.34 | -2.56 ± 1.42 | -28.89 ± 6.30 | -3.22 ± 1.78 | -22.78 ± 5.04 | -1.33 ± 1.38 | -2.22 ± 7.28 | 0.67 ± 0.47 | -3.33 ± 5.69 | pA2, positive chronotropic [7]: 7.25 ± 0.10; pA2, positive inotropic [7]: 7.26 ± 0.08
